Results taken from patent US5420348A, “Urea derivatives and salts thereof” (Yamanouchi Pharmaceutical Co., Ltd., priority 1990, dated 1995).

Experiments:
[1] = system: serum total cholesterol; assay: Lipid-lowering activity in rats fed a diet containing 1.5% cholesterol and 0.5% bile acid; type: in vivo; details: Rattus norvegicus; male Sprague-Dawley rats, 1.5% cholesterol/0.5% bile acid diet for 7 days, oral once a day during last 5 days, blood 2 hours after last administration; read-out: % Reduction in Serum Total Cholesterol ED50
From the text: ii) Lipid-lowering activity:
Two hours after the last administration, blood samples were collected under ether anesthesia for determination of serum total cholesterol level and HDL-cholesterol level.

[2] = biological target: acyl-CoA cholesterol acyltransferase (ACAT); assay: Inhibitory action against acyl-CoA cholesterol acyltransferase (ACAT) activity in rabbit liver microsome; type: biochemical; details: 36 μM [1-14C]oleoyl CoA, pH 7.4, 37° C., 10 minutes, read-out: ACAT Inhibiting Activity IC50 (50% Inhibition Concentration)
Method: i) ACAT enzyme inhibiting activity:
Inhibitory action against acyl-CoA cholesterol acyltransferase (ACAT) activity in rabbit liver microsome
The rabbit liver microsome was prepared as an enzyme fraction according to the method of Heider (J. G. Heider et al., J. of Lipid Res., Vol. 24, 1127-34 (1983)).
To the mixture of 0.154M phosphate buffer solution (pH 7.4), 2 mM dithiothreitol, 36 μM bovine serum albumin and 10-100 μg of microsome fraction was added liposome prepared by the method of Suckling (K. E. Suckling et al., FEBS Letters, Vol. 151, No. 111-116 (1983)) so that the proposition of liposome became 20% v/v. To the mixture was added 2% v/v of each concentration of test compound solution in dimethyl sulfoxide and the mixture was heated at 37° C. for 5 minutes. Then 36 μM oleoyl CoA containing 1^14 C-oleoyl CoA was added and the resultant mixture was heated at 37° C. for 10 minutes. The reaction was stopped by adding chloroform/methanol (=2/1). After stirring, cholesterol oleate extracted into the chloroform layer was separated by thin layer chromatography and the radioactivity was determined as ACAT activity.

Q: For `Cc1cc(C)c(NC(=O)N(Cc2ccc3c(c2)Cc2ccccc2-3)C2CCCCCC2)c(C)c1` [Example 1, 1-Cycloheptyl-1-[(2-fluorenyl)methyl]-3-(2,4,6-trimethylphenyl)urea], which ED50 [1] is on record?
A: 3.8 mg/kg

Q: What about the IC50 [2] of the same compound?
A: 73 nM

Q: Which results are given for `Cc1cc(C)c(NC(=O)N(Cc2cc3ccccc3c3ccccc23)C2CCCCCC2)c(C)c1` [Example 10, 1-Cycloheptyl-1-[(9-phenanthrenyl)methyl]-3-(2,4,6-trimethylphenyl)urea]?
A: ED50 [1]: 1.7 mg/kg; IC50 [2]: 61 nM
